Columns and labels:
Assay type in all cases: cell-based
[1] = test system: cat iris sphincter (prostamide F2α response); assay: Cat iris sphincter contraction: antagonism of prostamide F2α response; conditions: isolated cat iris sphincter, contractile response relative to 1×10^−7 M PGF2α, 30 min antagonist incubation; FIG. 1, FIG. 2
Procedure: (§1) The compounds of Examples 1 and 2 were tested for prostamide antagonist activity as follows:
(§2) The smooth muscle tension of isolated tissue preparations was measured isometrically with force displacement transducers (Grass FT-03) and recorded on a Grass polygraph (Model 7G). The organ baths contained Krebs solution maintained at 37° C. and gassed with 95% O2: 5% CO2 to give a pH of 7.4. The Krebs solution had the following composition (mM): NaCl, 118.0; KCl, 4.7; KH2PO4, 1.2; CaCl2, 1.9; MgSO4, 1.18; NaHCO3, 25.0; glucose, 11.7; indomethacin, 0.001.
(§3) Adult domestic cats were sacrificed by intravenous overdose of sodium pentobarbitol (Anthony, Arcadia, Calif., USA). The eyes were enucleated immediately and placed on ice. The iris sphincter from each eye was dissected to provide two strips ˜3 mm wide and 15-20 mm long. The sphincter muscle was mounted vertically under 50 mg tension in a jacketed 10 ml organ bath. A 60 min. equilibration period was allowed before commencing each experiment. The response to 1×10^−7 M PGF2α was determined at the beginning of each experiment as a reference. After complete washout, and return to baseline tension, tissues were allowed to re-equilibrate for 30 min. Antagonist or vehicle were then added. […] Activity of test compounds was determined as contractile responses and expressed relative to the reference standard 1×10^−7 M PGF2α.

[2] = test system: cat iris sphincter (PGF2α response); assay: Cat iris sphincter contraction: effect on PGF2α response; conditions: isolated cat iris sphincter, contractile response relative to 1×10^−7 M PGF2α, 30 min antagonist incubation; FIG. 1, FIG. 2
Procedure: as §1, §2, §3

[3] = test system: cat iris sphincter (prostamide E2 response); assay: Cat iris sphincter contraction: antagonism of prostamide E2 response; conditions: isolated cat iris sphincter, contractile response relative to 1×10^−7 M PGF2α, 30 min antagonist incubation; FIG. 4
Procedure: as §1, §2, §3

[4] = test system: cat iris sphincter (PGD2 response); assay: Cat iris sphincter contraction: effect on PGD2 response; conditions: isolated cat iris sphincter, contractile response relative to 1×10^−7 M PGF2α, 30 min antagonist incubation; FIG. 3
Procedure: as §1, §2, §3

[5] = test system: cat iris sphincter (PGE2 response); assay: Cat iris sphincter contraction: effect on PGE2 response; conditions: isolated cat iris sphincter, contractile response relative to 1×10^−7 M PGF2α, 30 min antagonist incubation; FIG. 4
Procedure: as §1, §2, §3

[6] = test system: cat iris sphincter (prostamide D2 response); assay: Cat iris sphincter contraction: antagonism of prostamide D2 response; conditions: isolated cat iris sphincter, contractile response relative to 1×10^−7 M PGF2α, 30 min antagonist incubation; FIG. 3
Procedure: as §1, §2, §3

| SMILES | prostamide F2α antagonist activity (effect on response curve of prostamide F2α) [1] | effect on response curve of PGF2α [2] | prostamide E2 antagonist activity (effect on response curve of prostamide E2) [3] | effect on response curve of PGD2 [4] | effect on response curve of PGE2 [5] | prostamide D2 antagonist activity (effect on response curve of prostamide D2) [6] |
| --- | --- | --- | --- | --- | --- | --- |
| CCNC(=O)CCc1ccc(F)cc1CC1C2CCC(O2)C1c1nc(C(=O)NCCCCC2CCCCC2)co1 (centres unmarked) [Example 1, 2-{3-[2-(2-Ethylcarbamoyl-ethyl)-5-fluoro-benzyl]-7-oxa-bicyclo[2.2.1]hept-2-yl}-oxazole-4-carboxylic acid (4-cyclohexyl-butyl)-amide] | displaces the response curve | does not effect the response curve | displaces the response curve | does not effect the response curve | does not effect the response curve | displaces the response curve |
| O=C(CCc1ccc(F)cc1CC1C2CCC(O2)C1c1nc(C(=O)NCCCCC2CCCCC2)co1)NCCO (centres unmarked) [Example 2, 2-(3-{5-Fluoro-2-[2-(2-hydroxy-ethycarbamoyl)-ethyl]-benzyl}-7-oxa-bicyclo[2.2.1]hept-2-yl)-oxazole-4-carboxylic acid (4-cyclohexyl-butyl)-amide] | displaces the response curve | does not effect the response curve | – | – | – | – |

Reference: patent US20060106078A1, “Prostamide receptor antagonists” (Allergan, Inc., priority 2003, published 2006)
